From patent US12187742B2 (XRAD Therapeutics, Inc., priority 2018, dated 2025)
Where a name gives a salt, the structure may show the parent alone.

Legend:
DNA-PK = DNA-PK (Homo sapiens (Human), UniProt P78527); test: DNA-PK Enzyme-Linked Immunosorbent Assay (phosphorylation of GST-p53 (1-101) peptide); format: biochemical; settings: ELISA, ATP 20 μM
Summary of the method: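 Inhibition measured by 450 nm absorbance after HRP/TMB detection of phospho-Ser15 on immobilized GST-p53 (1-101). The kinase reaction used 0.1 μg/mL DNA-PK and 20 μM ATP, 1 h at 25 °C. Ten 3-fold compound dilutions, top final concentration 100 nM.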

ATM = ATM (Homo sapiens (Human), UniProt Q13315); test: ATM in Cell Western Assay (pKAP1 in etoposide-treated MCF-7 cells); format: cell-based; settings: MCF-7 cells, etoposide 100 μM, 1 hr, pKAP1 readout
Summary of the method: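 After paraformaldehyde fixation and Triton X-100 permeabilization, immunostained plates were read by infrared scanning (ODYSSEY CLx). Compound was given as 10 doses, 3-fold dilutions from a 1 μM final top concentration.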

ATM, sequence (Q13315 whole entry): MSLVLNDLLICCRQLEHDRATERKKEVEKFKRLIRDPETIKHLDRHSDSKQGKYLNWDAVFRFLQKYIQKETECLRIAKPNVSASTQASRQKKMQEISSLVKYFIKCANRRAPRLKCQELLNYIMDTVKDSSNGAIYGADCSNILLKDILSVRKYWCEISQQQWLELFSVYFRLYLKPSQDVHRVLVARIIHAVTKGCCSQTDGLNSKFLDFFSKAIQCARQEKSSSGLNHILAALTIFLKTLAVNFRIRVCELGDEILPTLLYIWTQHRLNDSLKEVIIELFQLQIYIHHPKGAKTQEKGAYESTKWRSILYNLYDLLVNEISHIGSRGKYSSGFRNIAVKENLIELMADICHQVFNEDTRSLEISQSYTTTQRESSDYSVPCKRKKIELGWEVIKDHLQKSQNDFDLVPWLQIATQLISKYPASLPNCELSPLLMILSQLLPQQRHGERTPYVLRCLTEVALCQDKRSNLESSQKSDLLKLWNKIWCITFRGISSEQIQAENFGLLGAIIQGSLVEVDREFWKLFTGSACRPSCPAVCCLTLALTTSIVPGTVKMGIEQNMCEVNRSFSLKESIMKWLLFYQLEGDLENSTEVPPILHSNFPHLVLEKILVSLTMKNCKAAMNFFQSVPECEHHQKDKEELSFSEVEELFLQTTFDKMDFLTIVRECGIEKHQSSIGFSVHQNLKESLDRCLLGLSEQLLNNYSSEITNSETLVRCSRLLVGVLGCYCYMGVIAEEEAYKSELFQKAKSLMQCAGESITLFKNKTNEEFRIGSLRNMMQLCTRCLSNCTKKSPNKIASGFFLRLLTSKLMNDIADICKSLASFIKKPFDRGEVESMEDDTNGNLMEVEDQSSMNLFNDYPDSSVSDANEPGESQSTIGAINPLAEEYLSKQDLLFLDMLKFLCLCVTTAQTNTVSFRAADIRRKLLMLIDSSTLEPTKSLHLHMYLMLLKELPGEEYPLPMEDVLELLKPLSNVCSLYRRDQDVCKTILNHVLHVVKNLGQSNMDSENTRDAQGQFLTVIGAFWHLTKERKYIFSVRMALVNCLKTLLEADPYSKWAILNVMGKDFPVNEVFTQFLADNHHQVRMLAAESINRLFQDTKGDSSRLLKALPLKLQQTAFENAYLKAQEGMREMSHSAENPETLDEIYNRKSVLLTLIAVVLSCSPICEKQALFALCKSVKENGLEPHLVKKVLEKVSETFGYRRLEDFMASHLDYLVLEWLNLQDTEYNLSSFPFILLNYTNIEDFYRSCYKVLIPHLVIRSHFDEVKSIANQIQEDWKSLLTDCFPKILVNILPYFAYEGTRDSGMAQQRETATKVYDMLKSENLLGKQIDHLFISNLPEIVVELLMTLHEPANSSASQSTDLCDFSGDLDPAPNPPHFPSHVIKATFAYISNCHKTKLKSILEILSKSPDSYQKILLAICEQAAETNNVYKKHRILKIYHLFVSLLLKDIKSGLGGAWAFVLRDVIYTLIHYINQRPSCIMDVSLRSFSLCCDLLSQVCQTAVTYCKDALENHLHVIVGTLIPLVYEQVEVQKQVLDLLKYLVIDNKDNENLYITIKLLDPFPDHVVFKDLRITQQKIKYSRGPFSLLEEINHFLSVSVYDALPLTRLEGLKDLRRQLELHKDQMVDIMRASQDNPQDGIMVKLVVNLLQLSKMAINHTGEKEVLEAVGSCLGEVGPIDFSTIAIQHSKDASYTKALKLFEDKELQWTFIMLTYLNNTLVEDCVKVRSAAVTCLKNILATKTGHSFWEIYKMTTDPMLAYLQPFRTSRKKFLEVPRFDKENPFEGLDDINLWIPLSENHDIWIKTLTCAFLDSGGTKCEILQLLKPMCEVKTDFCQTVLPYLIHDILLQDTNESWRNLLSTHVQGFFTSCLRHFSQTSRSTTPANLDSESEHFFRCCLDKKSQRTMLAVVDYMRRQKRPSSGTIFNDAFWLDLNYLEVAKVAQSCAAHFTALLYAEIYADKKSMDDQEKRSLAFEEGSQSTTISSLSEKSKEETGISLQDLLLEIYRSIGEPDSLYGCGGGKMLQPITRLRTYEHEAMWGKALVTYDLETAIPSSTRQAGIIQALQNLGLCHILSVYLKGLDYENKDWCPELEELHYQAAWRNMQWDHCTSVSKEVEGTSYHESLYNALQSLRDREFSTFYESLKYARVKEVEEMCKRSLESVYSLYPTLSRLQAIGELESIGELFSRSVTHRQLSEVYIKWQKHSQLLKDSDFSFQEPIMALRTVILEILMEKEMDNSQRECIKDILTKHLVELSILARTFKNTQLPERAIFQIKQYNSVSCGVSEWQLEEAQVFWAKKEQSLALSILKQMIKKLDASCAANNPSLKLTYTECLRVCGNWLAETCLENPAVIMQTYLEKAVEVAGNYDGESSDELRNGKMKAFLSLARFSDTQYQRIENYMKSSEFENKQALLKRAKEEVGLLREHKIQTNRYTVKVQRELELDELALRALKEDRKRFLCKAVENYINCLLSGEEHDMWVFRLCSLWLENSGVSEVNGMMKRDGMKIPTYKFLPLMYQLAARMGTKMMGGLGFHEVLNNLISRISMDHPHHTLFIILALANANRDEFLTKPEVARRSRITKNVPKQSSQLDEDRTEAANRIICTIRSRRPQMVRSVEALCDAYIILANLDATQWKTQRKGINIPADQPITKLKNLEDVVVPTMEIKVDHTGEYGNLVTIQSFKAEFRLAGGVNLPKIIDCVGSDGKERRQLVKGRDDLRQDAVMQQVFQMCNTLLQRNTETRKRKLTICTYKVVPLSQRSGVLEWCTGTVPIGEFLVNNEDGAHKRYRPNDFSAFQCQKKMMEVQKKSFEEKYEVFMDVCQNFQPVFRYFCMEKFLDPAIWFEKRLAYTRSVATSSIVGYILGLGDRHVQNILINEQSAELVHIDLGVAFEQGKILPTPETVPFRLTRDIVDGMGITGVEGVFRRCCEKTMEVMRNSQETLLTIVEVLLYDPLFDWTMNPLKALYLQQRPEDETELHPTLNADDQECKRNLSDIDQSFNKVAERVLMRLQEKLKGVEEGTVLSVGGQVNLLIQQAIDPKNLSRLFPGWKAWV

Row | IC50 (DNA-PK) [nM] | IC50 (ATM) [nM] | SMILES
1 | < 0.5 | < 0.5 | CN1C(=O)C2(CCC2)c2c1cnc1ccc(-c3cnc(N4CCC(N(C)C)CC4)c(NS(=O)(=O)C4CC4)c3)cc21 [Example 173, N-(2-(4-(Dimethylamino)piperidin-1-yl)-5-(3′-methyl-2′-oxo-2′,3′-dihydrospiro[cyclobutane-1,1′-pyrrolo[2,3-c]quinolin]-8′-yl)pyridin-3-yl)cyclopropanesulfonamide]
2 | 1 to 100 | 1 to 100 | CC1CCCN(S(=O)(=O)Nc2cc(-c3ccc4ncc5c(c4c3)C3(CCC3)C(=O)N5C)cnc2OCCCN(C)C)C1 (stereo not shown) [Example 175, N-(2-(3-(Dimethylamino)propoxy)-5-(3′-methyl-2′-oxo-2′,3′-dihydrospiro [cyclobutane-1,1′-pyrrolo[2,3-c]quinolin]-8′-yl)pyridin-3-yl)-3-methylpiperidine-1-sulfonamide]
3 | < 0.5 | 1 to 100 | CN(C)CCCOc1ncc(-c2ccc3ncc4c(c3c2)C2(CCC2)C(=O)N4C)cc1NS(=O)(=O)N1CCNCC1 [Example 177, N-(2-(3-(Dimethylamino)propoxy)-5-(3′-methyl-2′-oxo-2′,3′-dihydrospiro [cyclobutane-1,1′-pyrrolo[2,3-c]quinolin]-8′-yl)pyridin-3-yl)piperazine-1-sulfonamide]
4 | < 0.5 | 1 to 100 | Cc1ccc(S(=O)(=O)Nc2cc(-c3ccc4ncc5c(c4c3)C3(CCC3)C(=O)N5C)cnc2N2CCC(N(C)C)CC2)cc1 [Example 178, N-(2-(4-(Dimethylamino)piperidin-1-yl)-5-(3′-methyl-2′-oxo-2′,3′-dihydrospiro[cyclobutane-1,1′-pyrrolo[2,3-c]quinolin]-8′-yl)pyridin-3-yl)-4-methylbenzenesulfonamide 2,2,2-trifluoroacetate]
5 | 0.5 to 1 | 1 to 100 | CN1C(=O)C2(CCC2)c2c1cnc1ccc(-c3cnc(OCCCN4CCCCC4)c(NS(=O)(=O)N(C)C)c3)cc21 [Example 180, hydrochloride]
6 | 1 to 100 | 1 to 100 | COCCN(CCOC)S(=O)(=O)Nc1cc(-c2ccc3ncc4c(c3c2)C2(CCC2)C(=O)N4C)cnc1OCCCN(C)C [Example 181, 8′-(5-{[Bis(2-methoxyethyl)sulfamoyl]amino}-6-[3-(dimethylamino)propoxy]pyridine-3-yl)-3′-methyl-2′,3′-dihydrospiro [cyclobutane-1,1′-pyrrolo[2,3-c]quinoline]-2′-one]
7 | 1 to 100 | 1 to 100 | CCN(CC)S(=O)(=O)Nc1cc(-c2ccc3ncc4c(c3c2)C2(CCC2)C(=O)N4C)cnc1OCCCN(C)C [Example 183, 8′-{5-[(Diethylsulfanioyl)amino]-6-[3-(dimethylamino)propoxy]pyridine-3-yl}-3′-methyl-2′,3′-dihydrospiro [cyclobutane-1,1′-pyrrolo[2,3-c]quinoline]-2′-one]
8 | 1 to 100 | 1 to 100 | CC1CN(S(=O)(=O)Nc2cc(-c3ccc4ncc5c(c4c3)C3(CCC3)C(=O)N5C)cnc2OCCCN(C)C)CC(C)O1 (stereo not shown) [Example 184, N-(2-(3-(Dimethylamino)propoxy)-5-(3′-methyl-2′-oxo-2′,3′-dihydrospiro[cyclobutane-1,1′-pyrrolo[2,3-c]quinolin]-8′-yl)pyridin-3-yl)-2,6-dimethylmorpholine-4-sulfonamide]
9 | 0.5 to 1 | 1 to 100 | Cc1ccc(S(=O)(=O)Nc2cc(-c3ccc4ncc5c(c4c3)C3(CCC3)C(=O)N5C)cnc2N2CCC(N(C)C)CC2)cn1 [Example 185, N-(2-(4-(Dimethylamino)piperidin-1-yl)-5-(3′-methyl-2′-oxo-2′,3′-dihydrospiro[cyclobutane-1,1′-pyrrolo[2,3-c]quinolin]-8′-yl)pyridin-3-yl)-6-methylpyridine-3-sulfonamide hydrochloride]
10 | 1 to 100 | 1 to 100 | CN(C)CCCOc1ncc(-c2ccc3ncc4c(c3c2)C2(CCC2)C(=O)N4C)cc1NS(=O)(=O)c1ccc(C(F)(F)F)cc1 [Example 186, N-(2-(3-(Dimethylamino)propoxy)-5-(3′-methyl-2′-oxo-2′,3′-dihydrospiro[cyclobutane-1,1′-pyrrolo[2,3-c]quinolin]-8′-yl)pyridin-3-yl)-4-(trifluoromethyl)benzenesulfonamide hydrochloride]
11 | 1 to 100 | 1 to 100 | COC1CCN(S(=O)(=O)Nc2cc(-c3ccc4ncc5c(c4c3)C3(CCC3)C(=O)N5C)cnc2OCCCN(C)C)CC1 [Example 187, N-(2-(3-(Dimethylamino)propoxy)-5-(3′-methyl-2′-oxo-2′,3′-dihydrospiro[cyclobulane-1,1′-pyrrolo[2,3-c]quinolin]-8′-yl)pyridin-3-yl)-4-methoxypiperidine-1-sulfonamide]
12 | < 0.5 | 1 to 100 | CN(C)CCCOc1ncc(-c2ccc3ncc4c(c3c2)C2(CCC2)C(=O)N4C)cc1NS(=O)(=O)c1ccns1 [Example 188, N-(2-(3-(Dimethylamino)propoxy)-5-(3′-methyl-2′-oxo-2′,3′-dihydrospiro [cyclobutane-1,1′-pyrrolo [2,3-c]quinolin]-8′-yl)pyridin-3-yl) isothiazole-5-sulfonamide hydrochloride]
13 | < 0.5 | 1 to 100 | CN(C)CCCOc1ncc(-c2ccc3ncc4c(c3c2)C2(CCC2)C(=O)N4C)cc1NS(C)(=O)=O [Example 189, N-(2-(3-(Dimethylamino)propoxy)-5-(3′-methyl-2′-oxo-2′,3′-dihydrospiro [cyclobulane-1,1′-pyrrolo[2,3-c]quinolin]-8′-yl)pyridin-3-yl) methanesulfonamide]
14 | 1 to 100 | 1 to 100 | CN(C)CCCOc1ncc(-c2ccc3ncc4c(c3c2)C2(CCC2)C(=O)N4C)cc1NS(=O)(=O)C1CC1 [Example 190, N-(2-(3-(Dimethylamino)propoxy)-5-(3′-methyl-2′-oxo-2′,3′-dihydrospiro[cyclobulane-1,1′-pyrrolo[2,3-c]quinolin]-8′-yl)pyridin-3-yl)cyclopropanesulfonamide]
15 | 1 to 100 | 1 to 100 | Cc1ccc(S(=O)(=O)Nc2cc(-c3ccc4ncc5c(c4c3)C3(CCC3)C(=O)N5C)cnc2N2CCC(N3CCCCC3)CC2)cc1 [Example 192, N-(2-(1,4-Bipiperidin]-1′-yl)-5-(3′-methyl-2′-oxo-2′,3′-dihydrospiro[cyclobulane-1,1′-pyrrolo[2,3-c]quinolin]-8′-yl)pyridin-3-yl)-4-methylbenzenesulfonamide hydrochloride]
16 | 0.5 to 1 | 1 to 100 | CN1C(=O)C2(CCC2)c2c1cnc1ccc(-c3cnc(OCCCN4CCCCC4)c(NS(=O)(=O)c4cscn4)c3)cc21 [Example 193, N-(5-(3′-Methyl-2′-oxo-2′,3′-dihydrospiro[cyclobutane-1,1′-pyrrolo[2,3-c]quinolin]-8′-yl)-2-(3-(piperidin-1-yl)propoxy)pyridin-3-yl)thiazole-4-sulfonamide hydrochloride]
17 | < 0.5 | 1 to 100 | Cc1cc(S(=O)(=O)Nc2cc(-c3ccc4ncc5c(c4c3)C3(CCC3)C(=O)N5C)cnc2OCCCN2CCCCC2)sn1 [Example 194, 3-Methyl-N-(5-(3′-methyl-2′-oxo-2′,3′-dihydrospiro[cyclobutane-1,1′-pyrrolo[2,3-c]quinolin]-8′-yl)-2-(3-(piperidin-1-yl)propoxy)pyridin-3-yl)isothiazole-5-sulfonamide hydrochloride]
